Experimental data taken from PMC5423974 (European Journal of Clinical Pharmacology, 2017).

How the values were obtained:
[1] = Dose-exposure proportionality of AUC and Cmax (Power model, scatter plots); format: in vivo, human
Procedure: Dose-exposure proportionality for AUC and Cmax was assessed for non-Japanese Asian subjects using data from Study 86, and for the pooled analysis Western group by applying the Power model to data from the pooled analysis: Log(Y) = α + β•log(Dose) + ε, where Y = AUC or Cmax. Intercept and slope estimates (including point estimate, standard error, and 90% confidence interval [CI]) were provided for each parameter, and dose proportionality plots were generated for AUC and Cmax. All statistical analyses were performed using SAS version 9.2.

ABCG2 = experiment: Pharmacogenetic association of genetic variants with dose-normalized PK (linear regression, additive model; random effects meta-analysis); format: in vivo, human
Procedure: (§1) Five of the six genetic variants analyzed (CYP2C19*2, CYP2C19*3, CYP2C19*17, UGT1A1*6, ABCG2 421C > A) were single nucleotide polymorphisms while one genetic variant was a tandem repeat (UGT1A1*28.) Genotyping of the variants was performed using a Luminex CYP2C19 assay (for CYP2C19*2, CYP2C19*3 and CYP2C19*17), Taqman assays (for UGT1A1*6 and ABCG2 421C > A), and fragment analysis (for UGT1A1*28).
(§2) Each genetic variant was tested for any association with dose-normalized AUC, AUC0–12 or Cmax, using linear regression under an additive genetic model (i.e. phenotypic response per additional copy of the variant allele, where 0, 1 or 2 copies can be present at each locus). For each PK parameter Bonferroni’s correction was used to control for multiple testing when assessing statistical significance. A p value below 0.008 (p < 0.05 with Bonferoni correction for 6 tests) was considered statistically significant. Given the variation in frequency of the variant alleles, analyses were performed stratified by ethnic group (Asian, White, Black) across the studies. A combined estimate across populations was obtained using random effects meta-analysis to allow for between-population heterogeneity.
(§3) Genotype distributions were tested for deviation from Hardy-Weinberg equilibrium using Chi-squared tests. All pharmacogenetic analyses were performed using either StataSE version 14.1 or R statistical software version 3.2.2.

CYP2C19 = experiment: as above; format: in vivo, human
Procedure: as §1, §2, §3

UGT1A1 = experiment: as above; format: in vivo, human
Procedure: as §1, §2, §3

[2] = Safety and tolerability in Study 86 (Asian study); format: in vivo, human
Excerpt: Safety and tolerability findings obtained from Study 86 were summarized and compared descriptively to the safety and tolerability findings from the studies in Western subjects. Additional safety and tolerability data for the Western studies are reported in detail elsewhere and include references.

[3] = test system: cytochrome P450 2C19 (CYP2C19); parameters: method as in earlier work; details: ref 1 Report nos. Be000021–21 and D6244 KMN036, data on file, AstraZeneca; cited from earlier work
[4] = test system: UDP glucuronosyltransferase family 1 member A1 (UGT1A1); parameters: method as in earlier work; details: ref 1 Report nos. Be000021–21 and D6244 KMN036, data on file, AstraZeneca; cited from earlier work
[5] = test system: Breast Cancer Resistance Protein (BCRP); parameters: method as in earlier work; details: ref 1 Report nos. Be000021–21 and D6244 KMN036, data on file, AstraZeneca; cited from earlier work
[6] = human, in vivo; cited from earlier work
[7] = combined across ethnicities, random effects meta-analysis, N 87
[8] = CYP219C*2, combined across ethnicities, random effects meta-analysis, N 87
[9] = CYP219C*3, combined analysis, N 42
[10] = CYP219C*17, combined across ethnicities, random effects meta-analysis, N 87
[11] = UGTA1*6, combined analysis, N 42
[12] = UGTA1*28/37, combined across ethnicities, random effects meta-analysis, N 87
[13] = Study 86, Asian healthy subjects, 25, 35 and 50 mg

In the case of Cn1cnc2c(F)c(Nc3ccc(Br)cc3Cl)c(C(=O)NOCCO)cc21 [selumetinib, Selumetinib], the “dose-exposure proportionality (visual assessment of scatter plots, AUC and Cmax)” value ([1]; Western group, single doses of 25 to 75 mg) was “Approximate dose proportionality”, the “dose-exposure proportionality (visual assessment of scatter plots, AUC and Cmax)” value ([1]; non-Japanese Asian group, 25 to 50 mg) was “approximate dose proportionality” and the “Beta, per-allele change in DN AUC” value (ABCG2; Black, N 21) was 0.018 log ng.h/mL/mg. The “Beta, per-allele change in DN AUC(0–12)” value (ABCG2; Black, N 21) was -0.020 log ng.h/mL/mg, the “Beta, per-allele change in DN Cmax” value (ABCG2; Black, N 21) was -0.463 log ng/mL/mg and the “Beta, per-allele change in DN AUC” value (ABCG2; East Asian, N 42) was 0.042 log ng.h/mL/mg. For the same molecule, the “Beta, per-allele change in DN AUC(0–12)” value (ABCG2; East Asian, N 42) was 0.043 log ng.h/mL/mg, the “Beta, per-allele change in DN Cmax” value (ABCG2; East Asian, N 42) was 0.104 log ng/mL/mg and the “Beta, per-allele change in DN AUC” value (ABCG2; White, N 24) was -0.116 log ng.h/mL/mg. The “Beta, per-allele change in DN AUC(0–12)” value (ABCG2; White, N 24) was -0.093 log ng.h/mL/mg, the “Beta, per-allele change in DN Cmax” value (ABCG2; White, N 24) was -0.119 log ng/mL/mg and the “Beta, per-allele effect on DN AUC” value (ABCG2; [7]) was 0.028 log ng.h/mL/mg. The “Beta, per-allele effect on DN AUC(0–12)” value (ABCG2; [7]) was 0.029 log ng.h/mL/mg, the “Beta, per-allele effect on DN Cmax” value (ABCG2; [7]) was 0.015 log ng/mL/mg and the “Beta, per-allele change in DN AUC” value (CYP2C19; CYP219C*2, Black, N 21) was -0.043 log ng.h/mL/mg. The “Beta, per-allele change in DN AUC(0–12)” value (CYP2C19; CYP219C*2, Black, N 21) was -0.010 log ng.h/mL/mg, the “Beta, per-allele change in DN Cmax” value (CYP2C19; CYP219C*2, Black, N 21) was -0.110 log ng/mL/mg and the “Beta, per-allele change in DN AUC” value (CYP2C19; CYP219C*2, East Asian, N 42) was 0.009 log ng.h/mL/mg. For the same molecule, the “Beta, per-allele change in DN AUC(0–12)” value (CYP2C19; CYP219C*2, East Asian, N 42) was 0.011 log ng.h/mL/mg, the “Beta, per-allele change in DN Cmax” value (CYP2C19; CYP219C*2, East Asian, N 42) was -0.064 log ng/mL/mg and the “Beta, per-allele change in DN AUC” value (CYP2C19; CYP219C*2, White, N 24) was 0.198 log ng.h/mL/mg. For the same molecule, the “Beta, per-allele change in DN AUC(0–12)” value (CYP2C19; CYP219C*2, White, N 24) was 0.242 log ng.h/mL/mg, the “Beta, per-allele change in DN Cmax” value (CYP2C19; CYP219C*2, White, N 24) was 0.167 log ng/mL/mg and the “Beta, per-allele effect on DN AUC” value (CYP2C19; [8]) was 0.042 log ng.h/mL/mg. For the same molecule, the “Beta, per-allele effect on DN AUC(0–12)” value (CYP2C19; [8]) was 0.069 log ng.h/mL/mg, the “Beta, per-allele effect on DN Cmax” value (CYP2C19; [8]) was -0.010 log ng/mL/mg and the “Beta, per-allele change in DN AUC” value (CYP2C19; CYP219C*3, East Asian, N 42) was 0.063 log ng.h/mL/mg. For the same molecule, the “Beta, per-allele change in DN AUC(0–12)” value (CYP2C19; CYP219C*3, East Asian, N 42) was 0.096 log ng.h/mL/mg, the “Beta, per-allele change in DN Cmax” value (CYP2C19; CYP219C*3, East Asian, N 42) was 0.122 log ng/mL/mg and the “Beta, per-allele effect on DN AUC” value (CYP2C19; [9]) was 0.063 log ng.h/mL/mg. The “Beta, per-allele effect on DN AUC(0–12)” value (CYP2C19; [9]) was 0.096 log ng.h/mL/mg, the “Beta, per-allele effect on DN Cmax” value (CYP2C19; [9]) was 0.122 log ng/mL/mg and the “Beta, per-allele change in DN AUC” value (CYP2C19; CYP219C*17, Black, N 21) was 0.090 log ng.h/mL/mg. The “Beta, per-allele change in DN AUC(0–12)” value (CYP2C19; CYP219C*17, Black, N 21) was 0.089 log ng.h/mL/mg, the “Beta, per-allele change in DN Cmax” value (CYP2C19; CYP219C*17, Black, N 21) was 0.086 log ng/mL/mg and the “Beta, per-allele change in DN AUC” value (CYP2C19; CYP219C*17, East Asian, N 42) was -0.104 log ng.h/mL/mg. The “Beta, per-allele change in DN AUC(0–12)” value (CYP2C19; CYP219C*17, East Asian, N 42) was -0.139 log ng.h/mL/mg, the “Beta, per-allele change in DN Cmax” value (CYP2C19; CYP219C*17, East Asian, N 42) was -0.142 log ng/mL/mg and the “Beta, per-allele change in DN AUC” value (CYP2C19; CYP219C*17, White, N 24) was -0.116 log ng.h/mL/mg. The “Beta, per-allele change in DN AUC(0–12)” value (CYP2C19; CYP219C*17, White, N 24) was -0.127 log ng.h/mL/mg, the “Beta, per-allele change in DN Cmax” value (CYP2C19; CYP219C*17, White, N 24) was 0.041 log ng/mL/mg and the “Beta, per-allele effect on DN AUC” value (CYP2C19; [10]) was 0.004 log ng.h/mL/mg. For the same molecule, the “Beta, per-allele effect on DN AUC(0–12)” value (CYP2C19; [10]) was -0.014 log ng.h/mL/mg, the “Beta, per-allele effect on DN Cmax” value (CYP2C19; [10]) was 0.037 log ng/mL/mg and the “Beta, per-allele change in DN AUC” value (UGT1A1; UGTA1*6, East Asian, N 42) was 0.061 log ng.h/mL/mg. The “Beta, per-allele change in DN Cmax” value (UGT1A1; UGTA1*6, East Asian, N 42) was 0.073 log ng/mL/mg, the “Beta, per-allele effect on DN AUC” value (UGT1A1; [11]) was 0.061 log ng.h/mL/mg and the “Beta, per-allele effect on DN Cmax” value (UGT1A1; [11]) was 0.073 log ng/mL/mg. The “Beta, per-allele change in DN AUC” value (UGT1A1; UGTA1*28/37, Black, N 21) was 0.052 log ng.h/mL/mg, the “Beta, per-allele change in DN Cmax” value (UGT1A1; UGTA1*28/37, Black, N 21) was 0.048 log ng/mL/mg and the “Beta, per-allele change in DN AUC” value (UGT1A1; UGTA1*28/37, East Asian, N 42) was -0.153 log ng.h/mL/mg. For the same molecule, the “Beta, per-allele change in DN Cmax” value (UGT1A1; UGTA1*28/37, East Asian, N 42) was -0.152 log ng/mL/mg, the “Beta, per-allele change in DN AUC” value (UGT1A1; UGTA1*28/37, White, N 24) was -0.033 log ng.h/mL/mg and the “Beta, per-allele change in DN Cmax” value (UGT1A1; UGTA1*28/37, White, N 24) was 0.190 log ng/mL/mg. For the same molecule, the “Beta, per-allele effect on DN AUC” value (UGT1A1; [12]) was -0.055 log ng.h/mL/mg, the “Beta, per-allele effect on DN Cmax” value (UGT1A1; [12]) was 0.016 log ng/mL/mg and the “number of AEs reported” value ([2]; Study 86, Asian healthy subjects) was 21. The “AE leading to discontinuation of selumetinib” value [2, 13] was “no AE led to the discontinuation”, the serious adverse event [2, 13] was “no subject experienced a serious adverse event” and the “safety or tolerability concerns” value ([2]; Study 86, Asian healthy subjects, any dose level (25, 35 and 50 mg)) was “no safety or tolerability concerns”. The “number of AEs deemed related to selumetinib by the Investigator” value ([2]; Study 86, of the 21 AEs reported) was 14, the substrate of enzyme [3] was “substrate” and the substrate of enzyme [4] was “substrate”. The “substrate of transporter protein” value [5] was “substrate” and the “serious AEs” value [6] was “no serious AEs”.
